In one test the test system is PBMCs PHA-T cell. As to the kind of experiment: PBMC proliferation assay (PHA-stimulated T cells). To be noted: for IC50: Homo sapiens, PBMC. The format is cell-based, human. The text has this:
Monitoring gene expression patterns offers an alternative approach for optimizing the therapeutic window as compared with the traditional method of measuring drug concentrations in blood and correlating either the AUC or Cmax levels with a clinical response. Towards that end, the inventors have comprehensively evaluated several genes affected by treatment with two distinct IMPDH inhibitors in vitro, as potential readouts for assessing their biological activity. The genes that are listed in Tables I through VIII are particularly useful in the present invention. These genes were identified using the specific methods as follows: Most cell culture reagents, unless specified otherwise, were obtained from Gibco-BRL or JRH Biologicals. Complete RPMI was prepared by adding up to a final of 10% heat-inactivated fetal bovine serum (FBS), 55 μM β mercaptoethanol, 50 units/mL penicillin with 50 μg/mL streptomycin, 300 μg/ml L-glutamine and 10 mM HEPES pH 7.5 to RPMI1640. Stock solutions of Phyto-hemagglutinin (PHA-P, Difco) was prepared in FBS-free RPMI and stored at −20° C. VX-944, and MPA (Sigma-Aldrich or Calbiochem), were dissolved in DMSO at a concentration of 20 mM and stored at −20° C.
Peripheral blood mononuclear cells (PBMCs) and T cells were isolated as follows: Human venous blood was drawn from healthy volunteers using heparin as an anti-coagulant. PBMCs were isolated from blood by centrifugation over Ficoll-paque gradient or CPT tubes (Becton-Dickinson, Calif.), using standard conditions. PBMCs were harvested, washed and resuspended in complete RPMI, counted and diluted to 1×10^6 cells/ml.
In order to monitor PBMC proliferation assay, human PBMC derived T cells (5×10^4 cells/well), were added to 96-well plates. PHA was added up to a final concentration of 10-20 μg/mL per well for stimulating T cells. The mitogen SPAS was used at a final concentration of 2 mg/mL. DMSO was maintained at a final concentration of 0.1%.

In another test the test system is HL-60 cells. The test can be described thus: Affymetrix array transcript profiling in HL-60 cells, 14 h (early) and 30 h (late). The format is cell-based, human. The protocol: The above agents were tested in HL-60 cells at a concentration of 500 nM for VX-944 and 1000 nM for MPA or with 0.1% DMSO as the vehicle control. The cells were harvested at 14 or 30 hours post addition of compound or vehicle. Briefly, the culture medium was removed at the appropriate time-points and the cells washed with PBS. The cells were then harvested, and pelleted by-gentle centrifugation. The supernatant was discarded and the pellets snap-frozen on an ethanol/dry-ice slurry. RNA was isolated from cells by using a RNEasy kit from Qiagen. RNAs were quality controlled using the Agilent 2100 Bioanalyzer to determine the presence of RNAs.
Data from the arrays corresponding to VX-944 and MPA at the two time-points—14 hours (Early) and 30 hours (Late) were analyzed using Spotfire™, microarray data analysis software. Some of the data analysis parameters used are outlined below:
a) All the arrays were normalized by using trimmed means, with a 5% exclusion limit
b) Only genes present in at least 5 of the 6 chips used for the analyses were included in the genesets
c) Only statistically significant genes (ANOVA, p<0.05) were included in the final analyses to generate gene lists.
At the late (30 h) time-point, 335 genes were identified as overlapping between the VX-944 and MPA datasets. […] With MPA 66 genes are in common between the two time-points. As to a comparison between the two data sets, of the 102 genes modulated by VX-944 and the 66 genes modulated by MPA, 43 genes […]. To add additional value to the gene lists and provide additional information to the investigator, the genes underlying each of these expression patterns was queried against publicly available databases. These databases included Locus Link, Gene Cards, KEGG, GO annotations, OMIM, PubMed. The information gathered from such an analysis is organized below in data tables.

The test system of test [1] is genes responsive to IMPDH inhibition. The test can be described thus: Gene chip analysis of genes responsive to IMPDH inhibition (18 gene chips, 8793 genes). The format is cell-based. The conditions noted are these: for No. genes modulated: of 3421 genes common to all 18 gene chips. The text has this:
The present invention is directed to methods and compositions for using biomarkers that are responsive to changes in IMPDH activity levels.

A further test deals with PBMC cells. The test can be described thus: Gene expression changes in resting and PHA-stimulated (proliferating) PBMCs treated with VX-944. The format is cell-based, human. To be noted: proliferating lymphocytes; out of 67 genes.
The subject of test [2] is human peripheral lymphocytes. To be noted: cited from earlier work.
A further test deals with both IMPDH isozymes. To be noted: cited from earlier work.
The mark [3] stands for this setting: read-out: PBMCs PHA-T cell IC50.
[4] abbreviates: read-out: PHA-T cell IC50 in the presence of guanosine.
[5] abbreviates: common to early (14 h) and late (30 h).
Where [6] appears, read: treated vs. DMSO, early (14 h), VX-944 500 nM, MPA 1000 nM.

Like-named read-outs stand apart in the source and are kept apart here.

As to `COc1c(C)c2c(c(O)c1C/C=C(\C)CCC(=O)O)C(=O)OC2` [MPA, Mycophenolic acid], the “Ratio of PHA-T cell IC50 in the presence and absence of guanosine” value (from here on “Ratio of PHA-T cell IC50”) with PBMCs PHA-T cell was >224. The IC50 with PBMCs PHA-T cell (setting [3]) is 89 nM; with PBMCs PHA-T cell (setting [4]), > 20000 nM. In addition, the “Number of Genes Downregulated” value is listed as 0 in the test on HL-60 cells (setting [5]); 0 in the test with HL-60 cells (treated vs. DMSO, early (14 h)); 560 in the test with HL-60 cells (treated vs. DMSO, late (30 h)). Also, the “Number of Genes Total” value in the test on HL-60 cells (setting [5]) is recorded as 66; in the test with HL-60 cells (treated vs. DMSO, early (14 h)), 105; with HL-60 cells (treated vs. DMSO, late (30 h)), 1162. Besides, the “Number of Genes Upregulated” value with HL-60 cells (setting [5]) stood at 66; in the test with HL-60 cells (setting [6]) it was 105; with HL-60 cells (treated vs. DMSO, late (30 h)), 602. Also, the “FOLD CHANGE (MPA, EARLY)” value was determined as 1.5 in the test with HL-60 cells (gene ALG6); 1.5 with HL-60 cells (gene C6orf18); 1.5 with HL-60 cells (gene C8orf2); 1.5 in the test on HL-60 cells (gene C21orf4); 1.5 with HL-60 cells (gene CLECSF5); 1.6 in the test on HL-60 cells (gene FBXO5). Besides, the “FOLD CHANGE (MPA, EARLY)” value in the test on HL-60 cells (gene FLJ10852 (HIP14L)) was 1.5; with HL-60 cells (gene KLHL2) it was 1.6; with HL-60 cells (gene MGC13024) it was 1.5; in the test with HL-60 cells (gene MLC-B (MRLC2)), 1.8; with HL-60 cells (gene RAGD), 1.5; with HL-60 cells (gene RPAC2 (POLR1D)) it was 1.5. Moreover, the “FOLD CHANGE (MPA, EARLY)” value in the test on HL-60 cells (gene SNX10) was found to be 1.5; with HL-60 cells (gene TMEM8), 1.7; in the test on HL-60 cells (gene TOPK) it was 1.5. Besides, the “No. genes modulated: Decreased” value in test [1] was 36. Further, the “No. genes modulated: Increased” value in test [1] is reported as 39. For the same compound, the No. genes modulated in test [1] is recorded as 75.
Consider `COc1cc(NC(=O)Nc2cccc(CNC(=O)O[C@H]3CCOC3)c2)ccc1-c1cnco1` [VX-497], for which the “Ratio of PHA-T cell IC50” value in the test on PBMCs PHA-T cell worked out at 62. Moreover, the IC50 with PBMCs PHA-T cell (setting [3]) turned out to be 105 nM; with PBMCs PHA-T cell (setting [4]), 6500 nM.
Turning to `CC[C@H](CC#N)OC(=O)N[C@@H](C)c1cccc(NC(=O)Nc2ccc(-c3cnco3)c(OC)c2)c1` [VX-944], in the test on PBMCs PHA-T cell, the “Ratio of PHA-T cell IC50” value came to 373. For the same compound, the IC50 in the test on PBMCs PHA-T cell (setting [3]) was 21 nM; in the test on PBMCs PHA-T cell (setting [4]), 7800 nM; in test [2] (stimulated with either T or B-cell mitogens, read-out: IC50, inhibition of proliferation of human peripheral lymphocytes), 20 to 100 nM. Moreover, in the test with PBMCs PHA-T cell (VX-944 vs MPA), the “potency in cell assays relative to MPA” value is 3-4 fold. In the test on PBMC cells, the “number of genes implicated in cancers that are down-regulated” value came out at 4. Further, the “Number of Genes Downregulated” value stood at 0 with HL-60 cells (setting [5]); 119 in the test on HL-60 cells (treated vs. DMSO, early (14 h)); 0 in the test with HL-60 cells (treated vs. DMSO, late (30 h)). Moreover, the “Number of Genes Total” value is 102 with HL-60 cells (setting [5]); 291 in the test with HL-60 cells (treated vs. DMSO, early (14 h)); 434 in the test on HL-60 cells (treated vs. DMSO, late (30 h)). The “Number of Genes Upregulated” value came to 102 with HL-60 cells (setting [5]); 172 with HL-60 cells (setting [6]); 434 in the test with HL-60 cells (treated vs. DMSO, late (30 h)). For the same compound, the “inhibition of lymphocyte proliferation on addition of guanosine” value in test [2] (50 μM guanosine) was “alleviated”. Moreover, in test [2] (stimulated with either T or B-cell mitogens), the “potency in inhibiting lymphocyte proliferation compared with other IMPDH inhibitors” value is recorded as “more potent than VX-497 or MPA”. Further, the “No. genes modulated: Decreased” value in test [1] is 60. For the same compound, the “No. genes modulated: Increased” value in test [1] is 46. This compound also gave a No. genes modulated in test [1] of 106. Also, at both IMPDH isozymes, the Ki is 7 to 10 nM.

These data come from patent US20080318803A1, “Biomarkers for Monitoring Impdh Pathway Inhibition” (VERTEX PHARMACEUTICALS, priority 2004, published 2008).
